Source: patent publication US8192962B2, “Processes for detecting toxic substances” (Daikin Industries, Ltd., priority 2001, dated 2012)

Test system: Mitochondria-located protein genes
Experiment: DNA chip mRNA expression in yeast, mitochondria-located protein genes (Table 2)
Assay type: cell-based, Saccharomyces cerevisiae S288C
Conditions: cells incubated two hours with the chemical substance
Procedure, shortened: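 Value is the scanned fluorescence intensity ratio of exposed versus chemical-free cells. Log-phase S288C yeast in YPD at 25° C. received one toxic substance for two hours, dosed to slow growth without killing; Cy3/Cy5-labeled cDNA from oligo-dT-purified mRNA was hybridized to a whole-genome chip at 65° C.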

## Cl[C@H]1[C@H](Cl)[C@@H](Cl)[C@@H](Cl)[C@H](Cl)[C@H]1Cl [(7), γ-hexachlorocyclohexane]
Yeast gene YAL039C
  The level of expressed mRNA in the presence of chemical substance/The level of expressed mRNA in the absence of chemical substance: 1.0
Yeast gene YBL022C
  The level of expressed mRNA in the presence of chemical substance/The level of expressed mRNA in the absence of chemical substance: 1.0
Yeast gene YBL030C
  The level of expressed mRNA in the presence of chemical substance/The level of expressed mRNA in the absence of chemical substance: 0.9
Yeast gene YBL038W
  The level of expressed mRNA in the presence of chemical substance/The level of expressed mRNA in the absence of chemical substance: 8.0
Yeast gene YBL099W
  The level of expressed mRNA in the presence of chemical substance/The level of expressed mRNA in the absence of chemical substance: 0.9
Yeast gene YBR003W
  The level of expressed mRNA in the presence of chemical substance/The level of expressed mRNA in the absence of chemical substance: 1.1
Yeast gene YBR044C
  The level of expressed mRNA in the presence of chemical substance/The level of expressed mRNA in the absence of chemical substance: 1.5
Yeast gene YBR091C
  The level of expressed mRNA in the presence of chemical substance/The level of expressed mRNA in the absence of chemical substance: 1.0
Yeast gene YBR122C
  The level of expressed mRNA in the presence of chemical substance/The level of expressed mRNA in the absence of chemical substance: 2.0
Yeast gene YBR185C
  The level of expressed mRNA in the presence of chemical substance/The level of expressed mRNA in the absence of chemical substance: 1.2
Yeast gene YBR221C
  The level of expressed mRNA in the presence of chemical substance/The level of expressed mRNA in the absence of chemical substance: 1.5
Yeast gene YBR251W
  The level of expressed mRNA in the presence of chemical substance/The level of expressed mRNA in the absence of chemical substance: 1.4
Yeast gene YBR282W
  The level of expressed mRNA in the presence of chemical substance/The level of expressed mRNA in the absence of chemical substance: 1.2
Yeast gene YCL057W
  The level of expressed mRNA in the presence of chemical substance/The level of expressed mRNA in the absence of chemical substance: 1.4
Yeast gene YCR046C
  The level of expressed mRNA in the presence of chemical substance/The level of expressed mRNA in the absence of chemical substance: 1.2
Yeast gene YCR083W
  The level of expressed mRNA in the presence of chemical substance/The level of expressed mRNA in the absence of chemical substance: 1.8
Yeast gene YDL067C
  The level of expressed mRNA in the presence of chemical substance/The level of expressed mRNA in the absence of chemical substance: 0.8
Yeast gene YDL181W
  The level of expressed mRNA in the presence of chemical substance/The level of expressed mRNA in the absence of chemical substance: 1.1
Yeast gene YDL198C
  The level of expressed mRNA in the presence of chemical substance/The level of expressed mRNA in the absence of chemical substance: 1.0
Yeast gene YDR079W
  The level of expressed mRNA in the presence of chemical substance/The level of expressed mRNA in the absence of chemical substance: 1.3
Yeast gene YDR178W
  The level of expressed mRNA in the presence of chemical substance/The level of expressed mRNA in the absence of chemical substance: 0.6
Yeast gene YDR231C
  The level of expressed mRNA in the presence of chemical substance/The level of expressed mRNA in the absence of chemical substance: 1.7
Yeast gene YDR258C
  The level of expressed mRNA in the presence of chemical substance/The level of expressed mRNA in the absence of chemical substance: 3.9
Yeast gene YDR298C
  The level of expressed mRNA in the presence of chemical substance/The level of expressed mRNA in the absence of chemical substance: 1.0
Yeast gene YDR347W
  The level of expressed mRNA in the presence of chemical substance/The level of expressed mRNA in the absence of chemical substance: 1.2
Yeast gene YDR377W
  The level of expressed mRNA in the presence of chemical substance/The level of expressed mRNA in the absence of chemical substance: 1.1
Yeast gene YDR529C
  The level of expressed mRNA in the presence of chemical substance/The level of expressed mRNA in the absence of chemical substance: 0.5
Yeast gene YEL024W
  The level of expressed mRNA in the presence of chemical substance/The level of expressed mRNA in the absence of chemical substance: 0.7
Yeast gene YEL039C
  The level of expressed mRNA in the presence of chemical substance/The level of expressed mRNA in the absence of chemical substance: 0.6
Yeast gene YER178W
  The level of expressed mRNA in the presence of chemical substance/The level of expressed mRNA in the absence of chemical substance: 1.6
Yeast gene YFL016C
  The level of expressed mRNA in the presence of chemical substance/The level of expressed mRNA in the absence of chemical substance: 1.4
Yeast gene YGL018C
  The level of expressed mRNA in the presence of chemical substance/The level of expressed mRNA in the absence of chemical substance: 1.1
Yeast gene YGL187C
  The level of expressed mRNA in the presence of chemical substance/The level of expressed mRNA in the absence of chemical substance: 0.6
Yeast gene YGL191W
  The level of expressed mRNA in the presence of chemical substance/The level of expressed mRNA in the absence of chemical substance: 1.0
Yeast gene YGR008C
  The level of expressed mRNA in the presence of chemical substance/The level of expressed mRNA in the absence of chemical substance: 3.7
Yeast gene YGR028W
  The level of expressed mRNA in the presence of chemical substance/The level of expressed mRNA in the absence of chemical substance: 2.1
Yeast gene YGR062C
  The level of expressed mRNA in the presence of chemical substance/The level of expressed mRNA in the absence of chemical substance: 1.3
Yeast gene YGR076C
  The level of expressed mRNA in the presence of chemical substance/The level of expressed mRNA in the absence of chemical substance: 1.7
Yeast gene YGR082W
  The level of expressed mRNA in the presence of chemical substance/The level of expressed mRNA in the absence of chemical substance: 0.9
Yeast gene YGR174C
  The level of expressed mRNA in the presence of chemical substance/The level of expressed mRNA in the absence of chemical substance: 1.0
Yeast gene YGR244C
  The level of expressed mRNA in the presence of chemical substance/The level of expressed mRNA in the absence of chemical substance: 3.9
Yeast gene YHR008C
  The level of expressed mRNA in the presence of chemical substance/The level of expressed mRNA in the absence of chemical substance: 0.7
Yeast gene YIL155C
  The level of expressed mRNA in the presence of chemical substance/The level of expressed mRNA in the absence of chemical substance: 2.2
Yeast gene YJL096W
  The level of expressed mRNA in the presence of chemical substance/The level of expressed mRNA in the absence of chemical substance: 1.7
Yeast gene YJL102W
  The level of expressed mRNA in the presence of chemical substance/The level of expressed mRNA in the absence of chemical substance: 0.6
Yeast gene YJL133W
  The level of expressed mRNA in the presence of chemical substance/The level of expressed mRNA in the absence of chemical substance: 0.5
Yeast gene YJL166W
  The level of expressed mRNA in the presence of chemical substance/The level of expressed mRNA in the absence of chemical substance: 0.8
Yeast gene YJL180C
  The level of expressed mRNA in the presence of chemical substance/The level of expressed mRNA in the absence of chemical substance: 1.6
Yeast gene YJR045C
  The level of expressed mRNA in the presence of chemical substance/The level of expressed mRNA in the absence of chemical substance: 1.0
Yeast gene YJR077C
  The level of expressed mRNA in the presence of chemical substance/The level of expressed mRNA in the absence of chemical substance: 0.7
